# Where no end group is shown, it is not given here. The star is where a group is joined. Acm = CC(=O)NC*
# Tests used:
# [1] = test system: anticorps anti-protéine F; assay: Western blot test on peptide spots with sera of HIV-1 infected patients; type: binding, humain; set-up: key to réaction avec sérum CHA 1/300, 10µl / réaction avec sérum LOM 1/100, 10µl / réaction avec sérum LOM 1/100, 5µl / réaction avec sérum CHA 1/300, 5µl / réaction avec sérum CHA 1/300, 2µl / réaction avec sérum CHA 1/300, 1µl / réaction avec sérum 1545 1/200, 10µl: ++ signifiant une réaction plus marquée
# Method: Pour les besoins du test, les différents peptides PF16, PF19, PF13, PF17 utilisés sont dilués à une concentration de 2 mg/ml.
# Sur une bande de papier BIORAD pour transblot, on dépose différents spots : 1µl, 2µl, 5µl, 10µl.
# Après séchage on pratique un test Western Blot classique en utilisant comme anticorps des sérums de patients infectés par le virus HIV-1, positifs pour la protéine F, à des dilutions variant de 1/100 à 1/300.
# Les peptides testés permettent d'aboutir aux résultats résumés dans le tableau 2 avec trois sérums différents anti-F ++ (++ signifiant une réaction plus marquée).
# [2] = test system: anticorps, monoclonal anti-protéine F d'un rétrovirus HIV-1; assay: ELISA with mouse monoclonal anti-protein F antibody; type: binding, souris; conditions: antibody produced in mouse
# Text: Par ailleurs, les inventeurs ont constaté qu'un anticorps, monoclonal anti-protéine F d'un rétrovirus HIV-1 produit chez la souris reconnait le peptide PF16 de l'invention dans un test ELISA.
# [3] = test system: anticorps anti-nef; assay: ELISA for detection of anti-nef antibodies on coated peptides or nef; type: binding, humain
substance,measurement,setting,value
"GMDDPEREVLEWRFDSRLAFHHVARELHPEYFKNC(acm) (GMDDPEREVLEWRFDSRLAFHHVARELHPEYFKNC(Acm)) [PF16, protéine F HIV-1, séquence 171-205]","réaction avec sérum 1545 1/200, 10µl","[1]; serum 1545 diluted 1/200, spot 10µl of peptide at 2 mg/ml",++
same,"réaction avec sérum CHA 1/300, 1µl","[1]; serum CHA diluted 1/300, spot 1µl of peptide at 2 mg/ml",++
same,"réaction avec sérum CHA 1/300, 2µl","[1]; serum CHA diluted 1/300, spot 2µl of peptide at 2 mg/ml",++
same,"réaction avec sérum CHA 1/300, 5µl","[1]; serum CHA diluted 1/300, spot 5µl of peptide at 2 mg/ml",++
same,"réaction avec sérum CHA 1/300, 10µl","[1]; serum CHA diluted 1/300, spot 10µl of peptide at 2 mg/ml",++
same,"réaction avec sérum LOM 1/100, 5µl","[1]; serum LOM diluted 1/100 (column outside the heading of positive sera), spot 5µl of peptide at 2 mg/ml",++
same,"réaction avec sérum LOM 1/100, 10µl","[1]; serum LOM diluted 1/100 (column outside the heading of positive sera), spot 10µl of peptide at 2 mg/ml",++
same,reconnaissance par un anticorps monoclonal anti-protéine F,[2],reconnait
same,nombre de sérums anti-nef positifs ayant réagi,"[3]; ELISA, out of 31 anti-nef positive sera",26
same,"intensité de l'immunoréactivité (OD), Serum 1","[3]; Serum 1, anti-nef positive, 500 ng coated per well","+++ (pour OD = 0,8 à 2,0)"
same,"intensité de l'immunoréactivité (OD), Serum 2","[3]; Serum 2, anti-nef positive, 500 ng coated per well","+++ (pour OD = 0,8 à 2,0)"
same,"intensité de l'immunoréactivité (OD), Serum 3","[3]; Serum 3, anti-nef positive, 500 ng coated per well","+ (pour OD = 0,2 à 0,4)"
same,"intensité de l'immunoréactivité (OD), Serum 4","[3]; Serum 4, anti-nef positive, 500 ng coated per well","+++ (pour OD = 0,8 à 2,0)"
same,"intensité de l'immunoréactivité (OD), Serum 5","[3]; Serum 5, anti-nef positive, 500 ng coated per well","+++ (pour OD = 0,8 à 2,0)"
same,"intensité de l'immunoréactivité (OD), Serum 6","[3]; Serum 6, anti-nef positive, 500 ng coated per well","+++ (pour OD = 0,8 à 2,0)"
same,"intensité de l'immunoréactivité (OD), Serum 7","[3]; Serum 7, anti-nef positive, 500 ng coated per well","- (pour une densité optique (OD) inférieure à 0,2)"
same,"intensité de l'immunoréactivité (OD), Serum 8","[3]; Serum 8, anti-nef positive, 500 ng coated per well","- (pour une densité optique (OD) inférieure à 0,2)"
same,"intensité de l'immunoréactivité (OD), Serum 9","[3]; Serum 9, anti-nef positive, 500 ng coated per well","- (pour une densité optique (OD) inférieure à 0,2)"
same,"intensité de l'immunoréactivité (OD), Serum 10","[3]; Serum 10, anti-nef positive, 500 ng coated per well","+ (pour OD = 0,2 à 0,4)"
same,"intensité de l'immunoréactivité (OD), Serum 11","[3]; Serum 11, anti-nef positive, 500 ng coated per well","+ (pour OD = 0,2 à 0,4)"
same,"intensité de l'immunoréactivité (OD), Serum 12","[3]; Serum 12, anti-nef positive, 500 ng coated per well","- (pour une densité optique (OD) inférieure à 0,2)"
same,"intensité de l'immunoréactivité (OD), Serum 13","[3]; Serum 13, anti-nef positive, 500 ng coated per well","++ (pour OD = 0,4 à 0,8)"
same,"intensité de l'immunoréactivité (OD), Serum 14","[3]; Serum 14, anti-nef positive, 500 ng coated per well","- (pour une densité optique (OD) inférieure à 0,2)"
same,"intensité de l'immunoréactivité (OD), Serum 15","[3]; Serum 15, anti-nef positive, 500 ng coated per well","+++ (pour OD = 0,8 à 2,0)"
same,"intensité de l'immunoréactivité (OD), Serum 16","[3]; Serum 16, anti-nef positive, 500 ng coated per well","+++ (pour OD = 0,8 à 2,0)"
same,"intensité de l'immunoréactivité (OD), Serum 17","[3]; Serum 17, anti-nef positive, 500 ng coated per well","++ (pour OD = 0,4 à 0,8)"
same,"intensité de l'immunoréactivité (OD), Serum 18","[3]; Serum 18, anti-nef positive, 500 ng coated per well","+++ (pour OD = 0,8 à 2,0)"
same,"intensité de l'immunoréactivité (OD), Serum 19","[3]; Serum 19, anti-nef positive, 500 ng coated per well","+++ (pour OD = 0,8 à 2,0)"
same,"intensité de l'immunoréactivité (OD), Serum 20","[3]; Serum 20, anti-nef positive, 500 ng coated per well","++ (pour OD = 0,4 à 0,8)"
same,"intensité de l'immunoréactivité (OD), Serum 21","[3]; Serum 21, anti-nef positive, 500 ng coated per well","+++ (pour OD = 0,8 à 2,0)"
same,"intensité de l'immunoréactivité (OD), Serum 22","[3]; Serum 22, anti-nef positive, 500 ng coated per well","+++ (pour OD = 0,8 à 2,0)"
same,"intensité de l'immunoréactivité (OD), Serum 23","[3]; Serum 23, anti-nef positive, 500 ng coated per well","++ (pour OD = 0,4 à 0,8)"
same,"intensité de l'immunoréactivité (OD), Serum 24","[3]; Serum 24, anti-nef positive, 500 ng coated per well","+++ (pour OD = 0,8 à 2,0)"
same,"intensité de l'immunoréactivité (OD), Serum 25","[3]; Serum 25, anti-nef positive, 500 ng coated per well","+++ (pour OD = 0,8 à 2,0)"
same,"intensité de l'immunoréactivité (OD), Serum 26","[3]; Serum 26, anti-nef positive, 500 ng coated per well","+++ (pour OD = 0,8 à 2,0)"
same,"intensité de l'immunoréactivité (OD), Serum 27","[3]; Serum 27, anti-nef positive, 500 ng coated per well","+ (pour OD = 0,2 à 0,4)"
same,"intensité de l'immunoréactivité (OD), Serum 28","[3]; Serum 28, anti-nef positive, 500 ng coated per well","++ (pour OD = 0,4 à 0,8)"
same,"intensité de l'immunoréactivité (OD), Serum 29","[3]; Serum 29, anti-nef positive, 500 ng coated per well","++ (pour OD = 0,4 à 0,8)"
same,"intensité de l'immunoréactivité (OD), Serum 30","[3]; Serum 30, anti-nef positive, 500 ng coated per well","++ (pour OD = 0,4 à 0,8)"
same,"intensité de l'immunoréactivité (OD), Serum 31","[3]; Serum 31, anti-nef positive, 500 ng coated per well","+++ (pour OD = 0,8 à 2,0)"
same,"intensité de l'immunoréactivité (OD), Serum 32","[3]; Serum 32, anti-nef negative control serum, 500 ng coated per well","- (pour une densité optique (OD) inférieure à 0,2)"
same,"intensité de l'immunoréactivité (OD), Serum 33","[3]; Serum 33, anti-nef negative control serum, 500 ng coated per well","- (pour une densité optique (OD) inférieure à 0,2)"

# Source: EP0349354A1, “Peptides PF10 to PF19 from a retro virus HIV, method for the synthesis of these peptides and their use, particularly in diagnostics” (INSTITUT PASTEUR, priority 1988, dated 1990)
